# Measured values: patent publication US8945594B2, “Vinylic mask with peel-off effect for topical use containing high concentrations of retinoic acid” (Laboratori Farmaceutici Krymi S.p.A., priority 2010, dated 2015)
# Key:
# [1] = Ex vivo determination of skin-accumulated amount of tretinoin contained in the polyvinylic mask; type: in vitro ADME, human; conditions: polyvinylic mask 2.5% Trans-Retinoic acid Lot P10044, n = 3, average ± s.d.
# Method: Assessing the Absence of Skin Permeation of Retinoic Acid During the Application Period by Ex Vivo Determination of Skin-Accumulated Amount of the Tretinoin Contained in the Polyvinylic Mask
# An ex vivo study of the skin-accumulated amount of retinoic acid contained in the polyvinylic mask was conducted at the Department of Pharmaceutical Sciences of the University of Milan. The aim of the work was the assessment of the barrier effect by polyvinyl alcohol toward the percutaneous absorption of Trans-Retinoic acid under standard conditions of use of the mask. A sample of polyvinylic mask containing 2.5% Trans-Retinoic acid (Lot n° P10044) was subjected to the test. The membrane was prepared by using skin of human origin, which is the most appropriate for foreseeing in vivo absorption. As it is known that the skin barrier against permeation of exogenous substances by passive diffusion mainly consists of the corneal layer, absorption was assessed by using as membrane the […] (SCE) obtained by mechanical separation of the derm from the skin.
# The difference in the amounts of tretinoin accumulated in the membranes over the two exposure times, reported in the following table 1, is not significant; therefore, it is evident how the barrier formed by polyvinyl alcohol interferes, by inhibiting percutaneous absorption of Trans-Retinoic acid and therefore its undesired systemic effects, which instead are present in products lacking said barrier and containing it.
# [2] = cited from earlier work
smiles,measurement,setting,value
"CC1=C(/C=C/C(C)=C/C=C/C(C)=C/C(=O)O)C(C)(C)CCC1 [Tretinoin, retinoic acid]",Amount of SCE-accumulated tretinoin,[1]; exposure time 30 min,1.32 ± 1.01 μg/cm^2
same,"Amount of SCE-accumulated tretinoin, % w/w with respect to the amount applied",[1]; exposure time 30 min,1.15 ± 0.84 % w/w
same,Amount of SCE-accumulated tretinoin,[1]; exposure time 60 min,1.63 ± 0.23 μg/cm^2
same,"Amount of SCE-accumulated tretinoin, % w/w with respect to the amount applied",[1]; exposure time 60 min,1.38 ± 0.12 % w/w
same,solubility in dichloromethane,[2],soluble in dichloromethane
same,solubility in ethanol,[2],scarcely soluble in ethanol
same,solubility in ether,[2],moderately soluble in ether
same,solubility in water,[2],practically insoluble in water
